From patent US10150737B2, “Compounds for controlling arthropods” (priority 2013, dated 2018)

What was measured:
[1] = logP determination by HPLC on a reversed-phase column (C18); format: physicochemical; settings: for logP^a): HPLC-MS method a); for log P: HPLC-MS
[2] = system: Spodoptera frugiperda; experiment: Spodoptera frugiperda - spray test; format: in vivo; settings: caterpillars on maize leaf discs, after 7 days
Protocol: (§1) Solvent: 78.0 parts by weight of acetone and 1.5 parts by weight of dimethylformamide
(§2) Emulsifier: alkylaryl polyglycol ether
(§3) To produce an appropriate active ingredient formulation, 1 part by weight of active ingredient is dissolved using the specified parts by weight of solvent and made up with water containing an emulsifier concentration of 1000 ppm until the desired concentration is attained. To produce further test concentrations, the preparation is diluted with emulsifier-containing water.
Leaf discs of maize (Zea mays) are sprayed with an active ingredient formulation of the desired concentration and, after drying, populated with caterpillars of the armyworm (Spodoptera frugiperda).
After 7 days, efficacy in % is determined. 100% means that all the caterpillars have been killed; 0% means that no caterpillars have been killed.

[3] = system: Ctenocephalides felis; experiment: Ctenocephalides felis - oral test; format: in vivo; settings: application rate 100 ppm in citrated cattle blood; after 2 days
Protocol: (§4) Solvent: dimethyl sulphoxide
For the purpose of producing an appropriate active ingredient formulation, 10 mg of active ingredient are mixed with 0.5 ml of dimethyl sulphoxide. Dilution with citrated cattle blood gives the desired concentration.
About 20 unfed adult cat fleas (Ctenocephalides felis) are placed into a chamber which is closed at the top and bottom with gauze. A metal cylinder whose bottom end is closed with parafilm is placed onto the chamber. The cylinder contains the blood/active ingredient preparation, which can be imbibed by the fleas through the parafilm membrane.
After 2 days, the kill in % is determined. 100% means that all of the fleas have been killed; 0% means that none of the fleas have been killed.

[4] = system: Phaedon cochleariae; experiment: Phaedon cochleariae - spray test; format: in vivo; settings: larvae on Chinese cabbage leaf discs, after 7 days
Protocol: as §1, §2, §3
Discs of Chinese cabbage leaves (Brassica pekinensis) are sprayed with an active ingredient formulation of the desired concentration and, after drying, populated with larvae of the mustard beetle (Phaedon cochleariae).
After 7 days, efficacy in % is determined. 100% means that all the beetle larvae have been killed; 0% means that no beetle larvae have been killed.

[5] = system: Boophilus microplus; experiment: Boophilus microplus - injection test; format: in vivo; settings: application rate 20 μg/animal; injection into engorged adult female ticks; after 7 days
Protocol: as §4
To produce an appropriate active ingredient formulation, 10 mg of active ingredient are mixed with 0.5 ml of solvent and the concentrate is diluted with solvent to the desired concentration.
1 μl of the active ingredient solution is injected into the abdomen of 5 engorged adult female cattle ticks (Boophilus microplus). The animals are transferred into dishes and kept in a climate-controlled room.
Efficacy is assessed after 7 days by laying of fertile eggs. Eggs which are not visibly fertile are stored in a climate-controlled cabinet until the larvae hatch after about 42 days. An efficacy of 100% means that none of the ticks has laid any fertile eggs; 0% means that all the eggs are fertile.

[6] = system: Lucilia cuprina; experiment: Lucilia cuprina test; format: in vivo; settings: application rate 100 ppm; L1 larvae; after 2 days
Protocol: as §4
To produce an appropriate active ingredient formulation, 10 mg of active ingredient are mixed with 0.5 ml of dimethyl sulphoxide, and the concentrate is diluted with water to the desired concentration.
About 20 L1 larvae of the Australian sheep blowfly (Lucilia cuprina) are transferred into a test vessel containing minced horsemeat and the active ingredient preparation of the desired concentration.
After 2 days, the kill in % is determined. 100% means that all the larvae have been killed; 0% means that none of the larvae have been killed.

[7] = system: Tetranychus urticae; experiment: Tetranychus urticae - spray test, OP-resistant; format: in vivo; settings: bean leaf discs, after 6 days
Protocol: as §1, §2, §3
Discs of bean leaves (Phaseolus vulgaris) infested by all stages of the greenhouse red spider mite (Tetranychus urticae) are sprayed with an active ingredient formulation of the desired concentration.
After 6 days, efficacy in % is determined. 100% means that all the spider mites have been killed; 0% means that none of the spider mites have been killed.

[8] = reversed-phase column (C18), Table I-T3

## Cc1cc(C(F)(C(F)(F)F)C(F)(F)F)cc(C)c1-n1cc(-c2cnc(C3CC3)c(C(=O)NC3CC3)c2)cn1 [I-T3-140]
[1]; reversed-phase column (C18)
  logP^a): 4.2
[1]; [8]
  log P: 4.2
[2]; application rate 100 g/ha
  efficacy: 100%
[3]
  efficacy (kill): 100%
[4]; application rate 100 g/ha
  efficacy: 100%
[5]
  efficacy (laying of fertile eggs): 100%
[6]
  efficacy (kill): 100%

## O=C(NCC(F)(F)F)c1cc(-c2cnn(-c3ccc(C(F)(C(F)(F)F)C(F)(F)F)cc3OC(F)(F)F)c2)ccc1Cl [I-T3-36]
[1]
  logP^a): 5.0
[1]; [8]
  logP^a): 5.0
[3]
  efficacy (kill): 80%
[4]; application rate 500 g/ha
  efficacy: 100%
[5]
  efficacy (laying of fertile eggs): 100%
[6]
  efficacy (kill): 100%

## N#CC1(NC(=O)c2cc(-c3cnn(-c4ncc(C(F)(F)F)cc4Cl)c3)ccc2Cl)CC1 [I-T3-59]
[1]
  logP^a): 3.1
[1]; [8]
  logP^a): 3.1
[3]
  efficacy (kill): 100%
[4]; application rate 100 g/ha
  efficacy: 100%
[5]
  efficacy (laying of fertile eggs): 100%
[6]
  efficacy (kill): 100%

## CCc1cc(C(F)(C(F)(F)F)C(F)(F)F)ccc1-n1cc(-c2ccc(Cl)c(C(=O)NCC(F)(F)F)c2)cn1 [I-T3-40]
[1]
  logP^a): 4.9
[1]; [8]
  logP^a): 4.9
[2]; application rate 100 g/ha
  efficacy: 100%
[3]
  efficacy (kill): 100%
[4]; application rate 100 g/ha
  efficacy: 100%
[5]
  efficacy (laying of fertile eggs): 100%
[6]
  efficacy (kill): 100%

## CCc1cc(C(F)(C(F)(F)F)C(F)(F)F)cc(C)c1-n1cc(-c2cccc(C(=O)NC3(C#N)CC3)c2F)cn1 [I-T3-69]
[1]
  logP^a): 4.3
[1]; [8]
  logP^a): 4.5
[2]; application rate 500 g/ha
  efficacy: 100%
[7]; application rate 500 g/ha
  efficacy: 100%
[3]
  efficacy (kill): 100%
[4]; application rate 500 g/ha
  efficacy: 100%
[5]
  efficacy (laying of fertile eggs): 100%
[6]
  efficacy (kill): 95%

## Cc1cc(C(F)(C(F)(F)F)C(F)(F)F)cc(C)c1-n1cc(-c2ccc(Cl)c(C(=O)NCC(=O)NCC(F)(F)F)c2)cn1 [I-T3-6]
[1]
  logP^a): 4.1
[1]; [8]
  logP^a): 4.1
[4]; application rate 100 g/ha
  efficacy: 100%
[5]
  efficacy (laying of fertile eggs): 100%
[6]
  efficacy (kill): 100%

## O=C(NC1CC1)c1cc(-c2cnn(-c3ncc(C(F)(F)F)cc3Cl)c2)ccc1Cl [I-T3-60]
[1]
  logP^a): 3.2
[1]; [8]
  logP^a): 3.2
[3]
  efficacy (kill): 90%
[5]
  efficacy (laying of fertile eggs): 100%
[6]
  efficacy (kill): 90%

## O=C(NCC(F)(F)F)c1cc(-c2cnn(-c3ccc(C(F)(C(F)(F)F)C(F)(F)F)cc3Cl)c2)ccc1Cl [I-T3-32]
[1]
  logP^a): 4.7
[1]; [8]
  logP^a): 4.7
[3]
  efficacy (kill): 100%
[5]
  efficacy (laying of fertile eggs): 100%
[6]
  efficacy (kill): 100%

## CCc1cc(C(F)(C(F)(F)F)C(F)(F)F)ccc1-n1cc(-c2cncc(C(=O)NC3(C#N)CC3)c2)cn1 [I-T3-78]
[1]
  logP^a): 3.2
[1]; [8]
  logP^a): 3.8
[2]; application rate 500 g/ha
  efficacy: 100%
[7]; application rate 500 g/ha
  efficacy: 100%
[3]
  efficacy (kill): 100%
[4]; application rate 500 g/ha
  efficacy: 100%
[5]
  efficacy (laying of fertile eggs): 100%
[6]
  efficacy (kill): 100%

## CCc1cc(C(F)(F)C(F)(F)F)cc(C)c1-n1cc(-c2ccc(Cl)c(C(=O)NCC(F)(F)F)c2)cn1 [I-T3-82]
[1]
  logP^a): 4.0
[1]; [8]
  logP^a): 4.0
[2]; application rate 100 g/ha
  efficacy: 100%
[7]; application rate 100 g/ha
  efficacy: 100%
[3]
  efficacy (kill): 95%
[4]; application rate 100 g/ha
  efficacy: 100%
[5]
  efficacy (laying of fertile eggs): 100%
[6]
  efficacy (kill): 100%

## Cc1cc(C(F)(C(F)(F)F)C(F)(F)F)cc(C)c1-n1cc(-c2cccc(C(=O)NC3(C#N)CC3)c2F)cn1 [I-T3-10]
[1]
  logP^a): 4.2
[1]; [8]
  logP^a): 4.2
[2]; application rate 500 g/ha
  efficacy: 100%
[7]; application rate 500 g/ha
  efficacy: 100%
[3]
  efficacy (kill): 100%
[4]; application rate 500 g/ha
  efficacy: 100%
[5]
  efficacy (laying of fertile eggs): 100%
[6]
  efficacy (kill): 100%

## O=C(NC1CSC1)c1cc(-c2cnn(-c3ccc(C(F)(C(F)(F)F)C(F)(F)F)cc3OC(F)(F)F)c2)ccc1Cl [I-T3-37]
[1]
  logP^a): 4.9
[1]; [8]
  logP^a): 4.9
[3]
  efficacy (kill): 90%
[4]; application rate 500 g/ha
  efficacy: 100%
[5]
  efficacy (laying of fertile eggs): 100%
[6]
  efficacy (kill): 100%

## O=C(NCCC(F)(F)F)c1cc(-c2cnn(-c3ccc(C(F)(C(F)(F)F)C(F)(F)F)cc3Cl)c2)ccc1Cl [I-T3-33]
[1]
  logP^a): 4.7
[1]; [8]
  logP^a): 4.7
[3]
  efficacy (kill): 100%
[5]
  efficacy (laying of fertile eggs): 100%
[6]
  efficacy (kill): 100%

## Cn1ccc(NC(=O)c2cc(-c3cnn(-c4c(Cl)cc(C(F)(F)F)cc4Cl)c3)cnc2Cl)n1 [I-T3-146]
[1]; reversed-phase column (C18)
  logP^a): 2.8
[1]; [8]
  log P: 2.8
[7]; application rate 100 g/ha
  efficacy: 100%
[3]
  efficacy (kill): 100%
[5]
  efficacy (laying of fertile eggs): 100%
[6]
  efficacy (kill): 90%

## N#CC1(NC(=O)c2cc(-c3cnn(-c4c(F)cc(C(F)(F)F)cc4F)c3)ccc2Cl)CC1 [I-T3-49]
[1]
  logP^a): 3.2
[1]; [8]
  logP^a): 3.2
[7]; application rate 20 g/ha
  efficacy: 100%
[3]
  efficacy (kill): 100%
[4]; application rate 100 g/ha
  efficacy: 100%
[5]
  efficacy (laying of fertile eggs): 100%
[6]
  efficacy (kill): 100%

## CCc1cc(C(F)(F)C(F)(F)F)cc(C)c1-n1cc(-c2ccc(Cl)c(C(=O)NC3CSC3)c2)cn1 [I-T3-83]
[1]
  logP^a): 4.6
[1]; [8]
  logP^a): 4.6
[2]; application rate 100 g/ha
  efficacy: 100%
[7]; application rate 100 g/ha
  efficacy: 100%
[3]
  efficacy (kill): 95%
[4]; application rate 100 g/ha
  efficacy: 100%
[5]
  efficacy (laying of fertile eggs): 100%
[6]
  efficacy (kill): 100%

## CCc1cc(C(F)(C(F)(F)F)C(F)(F)F)cc(C)c1-n1cc(-c2cccc(C(=O)NC3CC3)c2F)cn1 [I-T3-70]
[1]
  logP^a): 4.3
[1]; [8]
  logP^a): 4.7
[2]; application rate 500 g/ha
  efficacy: 100%
[7]; application rate 500 g/ha
  efficacy: 90%
[3]
  efficacy (kill): 95%
[4]; application rate 500 g/ha
  efficacy: 100%
[5]
  efficacy (laying of fertile eggs): 100%
[6]
  efficacy (kill): 100%

## Cc1cc(C(F)(C(F)(F)F)C(F)(F)F)cc(C)c1-n1cc(-c2cc(C(=O)NC3(C#N)CC3)cc(C(F)(F)F)c2)cn1 [I-T3-18]
[1]
  logP^a): 4.7
[1]; [8]
  logP^a): 4.7
[2]; application rate 500 g/ha
  efficacy: 100%
[3]
  efficacy (kill): 100%
[4]; application rate 500 g/ha
  efficacy: 100%
[5]
  efficacy (laying of fertile eggs): 100%
[6]
  efficacy (kill): 100%

## CCc1cc(C(F)(C(F)(F)F)C(F)(F)F)ccc1-n1cc(-c2cccc(C(=O)NC3(C#N)CC3)c2F)cn1 [I-T3-74]
[1]
  logP^a): 4.1
[1]; [8]
  logP^a): 4.5
[2]; application rate 500 g/ha
  efficacy: 100%
[7]; application rate 100 g/ha
  efficacy: 90%
[4]; application rate 500 g/ha
  efficacy: 100%
[5]
  efficacy (laying of fertile eggs): 100%
[6]
  efficacy (kill): 90%

## CCc1cc(C(F)(C(F)(F)F)C(F)(F)F)ccc1-n1cc(-c2cccc(C(=O)NC3CC3)c2F)cn1 [I-T3-75]
[1]
  logP^a): 4.2
[1]; [8]
  logP^a): 4.7
[2]; application rate 500 g/ha
  efficacy: 100%
[7]; application rate 500 g/ha
  efficacy: 100%
[4]; application rate 500 g/ha
  efficacy: 100%
[5]
  efficacy (laying of fertile eggs): 90%
[6]
  efficacy (kill): 80%

## Cc1cc(C(F)(C(F)(F)F)C(F)(F)F)cc(C)c1-n1cc(-c2cc(C(=O)NC3CC3)cc(C(F)(F)F)c2)cn1 [I-T3-15]
[1]
  logP^a): 4.9
[1]; [8]
  logP^a): 4.9
[3]
  efficacy (kill): 90%
[4]; application rate 500 g/ha
  efficacy: 100%
[5]
  efficacy (laying of fertile eggs): 100%
[6]
  efficacy (kill): 100%

## Cc1cc(C(F)(C(F)(F)F)C(F)(F)F)cc(C)c1-n1cc(-c2cc(C(=O)NC3(C#N)CC3)c(F)cc2Cl)cn1 [I-T3-12]
[1]
  logP^a): 4.7
[1]; [8]
  logP^a): 4.7
[2]; application rate 500 g/ha
  efficacy: 100%
[3]
  efficacy (kill): 100%
[4]; application rate 500 g/ha
  efficacy: 100%
[5]
  efficacy (laying of fertile eggs): 100%
[6]
  efficacy (kill): 80%
